Data from patent publication US20220280594A1, “APPLICATION OF POLYPEPTIDE OR DERIVATIVE THEREOF” (CHENGDU HUITAI BIOMEDICINE CO., LTD., priority 2019, published 2022).
Ends that are not written are not given here. PEG = not defined here

Tests used:
[1] = system: human lung cancer cells (A549) subcutaneous xenograft; assay: lung cancer subcutaneous xenograft animal model, intratumoral injection; format: in vivo, mice (BALB/c-nu/nu); details: intratumoral 5 mg/kg once every other day
Procedure: (§1) Experimental animals: 4-6 weeks old female immunodeficiency mice (BALB/c-nu/nu, Beijing Vital River Laboratory Animal Technology Co., Ltd.).
(§2) Subcutaneous xenograft animal model. The number of cells inoculated subcutaneously vin mice was about 2×10^6/200 μL. When the volume of the subcutaneous tumor was greater than 100 mm^3, the mice were randomly divided into groups and subjected to treatment. When the mass volume of the tumors in model control group reached 2000 mm^3 or the animal dies, the treatment ended. The animals were dissected, the tumors were taken out, and the weight and volume of the tumors were measured. During the period of the entire experiment, the mice were observed and the body weight was measured every other day.
The method used for the drug efficacy test in the animal model of the subcutaneous xenograft derived from lung cancer cells was as described in Example 5. The tumor cells were human lung cancer cells (A549), and the route of administration was intratumoral injection. There were two groups: the model control group and the polypeptide or its derivative treatment group (N1-N12). The drug dosage of the treatment group was 5 mg/kg, once every other day and the treatment time was 10 days.
The procedure of the efficacy test in this example, route and dosage of administration were the same as in Example 9. The peptides used in the experiment were N13-N32. The treatment time was 20 days.

[2] = system: human pancreatic cancer cells (PANC-1) subcutaneous xenograft; assay: pancreatic cancer subcutaneous xenograft animal model, intratumoral injection; format: in vivo, mice (BALB/c-nu/nu); details: PANC-1 xenograft, intratumoral 5 mg/kg once every other day, 25 days; for Weight of tumor (g) (mean ± SD): control 1.2 ± 0.11; for Volume of tumor (mm^3) (mean ± SD): control 1431.72 ± 174.33
Procedure: as §1, §2
The method used in the efficacy test on the pancreatic cancer subcutaneous xenograft animal model was as described in Example 5. The pancreatic cancer cells were human pancreatic cancer cells (PANC-1), and the route of administration was intratumoral injection. The experimental groups were model control group and polypeptide or derivative thereof treatment groups (N1-N12). The drug dosage of the N1-N12 treatment group was 5mg/kg, once every other day, and the treatment time was 25 days.

[3] = effect on coagulation function in mice (ACT); format: in vivo, C57BL/6J mice; details: 200 mg/kg tail vein once a day until Day 24, blood on Day 25; control group 73.50 ± 7.15
Procedure: C57BL/6J mice were used as experimental subjects (purchased from Chengdu Dashuo Experimental Animal Co., Ltd., male, weighing 16-17 g). Sterile saline or peptide drugs were injected via the tail vein once a day until Day 24. The mice in the control group were injected with sterile saline, and the mice in the administration groups (N1-N12) were injected with polypeptide drugs (200 mg/kg). There were three experimental animals in each group. On Day 25, the eyeballs were removed and blood ([…]) was taken. The coagulation function of the mice was detected by the Abbott i-STAT blood gas analyzer with the ACT test card.

N-cadherin = N-cadherin expression in SK-HEP-1 cells (ELISA); format: cell-based, human; details: SK-HEP-1, 10 μM, 24 hours, control group 1.12 ± 0.03
Procedure: (§3) SK-HEP-1 cells were cultured in vitro, cells in the logarithmic growth phase were collected, and the cells were seeded evenly in a 24-well plate at a density of 1-3×10^5 cells/well. The cells were cultured in a cell incubator for 4-5 h. PBS was added to the control group. PBS containing polypeptide or derivative thereof (N1-N12) was added to the treatment group. The final concentration of the polypeptide or derivative thereof in the well was 10 μM. After incubating for 24 hours, the cells were collected and the total protein was extracted. ELISA was used to detect the content of fibronectin in total protein.
The experimental method for testing the inhibition on the expression of N-cadherin in human liver adenocarcinoma cells (SK-HEP-1) by the polypeptide or derivative thereof (N1-N12) was as described in Example 19.

vimentin = vimentin expression in SK-HEP-1 cells (ELISA); format: cell-based, human; details: SK-HEP-1, 10 μM, 24 hours, control group 1.2 ± 0.01
Procedure: as §3
The experimental method for testing the inhibition on the expression of vimentin in human liver adenocarcinoma cells (SK-HEP-1) by the polypeptide or derivative thereof (N1-N12) was as described in Example 19.

fibronectin = fibronectin expression in SK-HEP-1 cells (ELISA); format: cell-based, human; details: SK-HEP-1, 10 μM, 24 hours, control group 1.62 ± 0.09
Procedure: as §3

[4] = 10 days, control 1269.32 ± 115.39
[5] = 20 days, control 1700.16 ± 305.72

Row | Substance | Weight of tumor (g) (mean ± SD) ([1]; 10 days, control 1.45 ± 0.15) | Volume of tumor (mm^3) (mean ± SD) [1, 4] | Weight of tumor (g) (mean ± SD) [2] | Volume of tumor (mm^3) (mean ± SD) [2] | Activated clotting time (s) (mean ± SD) [3] | Relative protein level (mean ± SD, P), N-cadherin (N-cadherin) | Relative protein level (mean ± SD, P), vimentin (vimentin) | Relative protein level (mean ± SD, P), fibronectin (fibronectin) | Weight of tumor (g) (mean ± SD) ([1]; 20 days, control 1.92 ± 0.13) | Volume of tumor (mm^3) (mean ± SD) [1, 5]
1 | N1: polypeptide with the amino acid sequence set forth in SEQ ID NO: 1 (YRVRFLAKENVTQDAEDN) | 0.87 ± 0.08 g | 851.64 ± 67.38 mm^3 | 0.52 ± 0.13 g | 704.1 ± 152.43 mm^3 | 73.64 ± 9.31 s | 0.83 ± 0.04,*** | 0.97 ± 0.03, *** | 1.3 ± 0.02,** | – | –
2 | N11: SEQ ID NO: 1 with deletion of positions 15-18 and 1-3 and PEG modification at the amino terminal ({PEG}-RFLAKENVTQD; reading uncertain) | 0.73 ± 0.08 g | 756.57 ± 204.03 mm^3 | 0.62 ± 0.12 g | 785.02 ± 147.38 mm^3 | 75.18 ± 7.99 s | 0.73 ± 0.04,*** | 0.94 ± 0.05, *** | 1.39 ± 0.01,* | – | –
3 | N3: SEQ ID NO: 1 with deletion of position 18 and PEG modification at the amino terminal ({PEG}-YRVRFLAKENVTQDAED; reading uncertain) | 0.79 ± 0.18 g | 712.59 ± 200.32 mm^3 | 0.6 ± 0.1 g | 695.11 ± 111.9 mm^3 | 72.55 ± 8.27 s | 0.87 ± 0.09,* | 0.96 ± 0.05, ** | 1.26 ± 0.09,** | – | –
4 | N12: SEQ ID NO: 1 with deletion of position 18 and positions 1-2 (VRFLAKENVTQDAED) | 0.73 ± 0.09 g | 726.15 ± 144.96 mm^3 | 0.71 ± 0.09 g | 863.2 ± 129.61 mm^3 | 75.55 ± 7.61 s | 0.58 ± 0.03,*** | 0.71 ± 0.03, **** | 1.23 ± 0.07,** | – | –
5 | N7: SEQ ID NO: 1 with addition of one amino acid at the carboxyl terminal and substitution A15R (YRVRFLAKENVTQDREDNC) | 0.81 ± 0.16 g | 741.86 ± 147.66 mm^3 | 0.74 ± 0.09 g | 671.47 ± 150.71 mm^3 | 73.27 ± 8.43 s | 0.73 ± 0.06,*** | 1 ± 0.03, *** | 1.36 ± 0.04,* | – | –
6 | N10: SEQ ID NO: 1 with deletion of positions 15-18 and 1-3 and PEG modification at the carboxyl terminal (RFLAKENVTQD-{PEG}; reading uncertain) | 0.75 ± 0.07 g | 705.83 ± 182.18 mm^3 | 0.57 ± 0.11 g | 667.99 ± 188.73 mm^3 | 73.27 ± 7.36 s | 0.69 ± 0.03,**** | 0.88 ± 0.06, *** | 1.3 ± 0.05,** | – | –
7 | N2: SEQ ID NO: 1 with deletion of one amino acid (position 18) at the carboxyl terminal (YRVRFLAKENVTQDAED) | 0.86 ± 0.13 g | 809.89 ± 129.93 mm^3 | 0.72 ± 0.12 g | 761.37 ± 150.52 mm^3 | 74.82 ± 9.62 s | 0.93 ± 0.04,** | 0.91 ± 0.03, **** | 1.23 ± 0.08,** | – | –
8 | N8: SEQ ID NO: 1 with deletion of positions 15-18 and positions 3, 4 and 11 (YRFLAKENTQD) | 0.68 ± 0.11 g | 783.99 ± 69.19 mm^3 | 0.59 ± 0.11 g | 769.54 ± 160.54 mm^3 | 74 ± 8.92 s | 0.7 ± 0.06,*** | 0.81 ± 0.03, **** | 1.33 ± 0.11,* | – | –
9 | N5: SEQ ID NO: 1 with addition of one amino acid at the carboxyl terminal and deletion of positions 1-3 (RFLAKENVTQDAEDNC) | 0.69 ± 0.14 g | 738.11 ± 167.03 mm^3 | 0.54 ± 0.1 g | 696.52 ± 127.05 mm^3 | 72.91 ± 8.04 s | 0.83 ± 0.04,*** | 0.87 ± 0.03, **** | 1.3 ± 0.11,* | – | –
10 | N21: SEQ ID NO: 1 with deletion of positions 1-5 and 15-18 and addition of one amino acid at the amino terminal (SLAKENVTQD) | – | – | – | – | – | – | – | – | 0.9 ± 0.28 g | 967.35 ± 247.89 mm^3
11 | N25: SEQ ID NO: 1 with substitution N18R and addition of two amino acids at the carboxyl terminal (YRVRFLAKENVTQDAEDRCT) | – | – | – | – | – | – | – | – | 0.71 ± 0.18 g | 958.87 ± 351.9 mm^3
12 | N14: SEQ ID NO: 1 with deletion of positions 1-5 and addition of one amino acid at the carboxyl terminal (LAKENVTQDAEDNC) | – | – | – | – | – | – | – | – | 1.09 ± 0.29 g | 913.68 ± 219.62 mm^3
13 | N28: SEQ ID NO: 1 with deletion of positions 1-2 and 18 and PEG modification at the amino terminal ({PEG}-VRFLAKENVTQDAED; reading uncertain) | – | – | – | – | – | – | – | – | 0.81 ± 0.24 g | 1055.02 ± 222.45 mm^3
14 | N26: SEQ ID NO: 1 with substitution A15R, addition of one amino acid at the amino terminal and one at the carboxyl terminal (FYRVRFLAKENVTQDREDNC) | – | – | – | – | – | – | – | – | 0.8 ± 0.22 g | 1053.55 ± 175.83 mm^3
15 | N18: SEQ ID NO: 1 with addition of one amino acid at the amino terminal and one at the carboxyl terminal (FYRVRFLAKENVTQDAEDNC) | – | – | – | – | – | – | – | – | 0.75 ± 0.26 g | 969.37 ± 243.04 mm^3
